Experimental data as given in US8580762B2, “Substituted purine and 7-deazapurine compounds” (Epizyme, Inc., priority 2010, dated 2013).

Biological target: DOT1L(1-416) (Homo sapiens, UniProt Q8TEK3)
Assay: Determination of IC50: DOT1L(1-416) methyltransferase assay, 3H-SAM, oligonucleosome substrate, Flashplate
Type: biochemical
Details: class symbols; read-out: DOT1L IC50
Experimental: Determination of IC50. Test compounds were serially diluted 3 fold in DMSO for 10 points and 1 μl was plated in a 384 well microtiter plate. […] 10 μl per well of substrate mix (same assay buffer with 200 nM S-[methyl-^3H]-adenosyl-L methionine, 600 nM of unlabeled […], and 20 nM oligonueleosome) was added to initiate the reaction. Reaction was incubated for 120 minutes at room temperature and quenched with 10 μl per well of 100 μM S-methyl-adenosyl-L methionine. For detection, substrate from 50 μl of reaction was immobilized on a 384 well Streptavidin coated Flashplate (Perkin Elmer) (also coated with 0.2% polyethyleneimine) and read on a Top Count scintillation counter (Perkin Elmer).

Sequence of DOT1L(1-416) (Q8TEK3 1-416): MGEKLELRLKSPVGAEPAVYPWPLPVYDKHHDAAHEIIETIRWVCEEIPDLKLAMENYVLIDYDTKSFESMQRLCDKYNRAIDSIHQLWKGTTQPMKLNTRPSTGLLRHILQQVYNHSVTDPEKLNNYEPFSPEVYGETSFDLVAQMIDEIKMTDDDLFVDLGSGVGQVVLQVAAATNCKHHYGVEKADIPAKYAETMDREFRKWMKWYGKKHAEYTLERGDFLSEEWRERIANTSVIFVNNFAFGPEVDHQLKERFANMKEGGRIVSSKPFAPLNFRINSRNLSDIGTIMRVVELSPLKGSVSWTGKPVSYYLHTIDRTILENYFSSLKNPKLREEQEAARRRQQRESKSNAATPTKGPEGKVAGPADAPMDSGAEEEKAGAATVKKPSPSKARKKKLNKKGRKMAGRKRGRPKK

Structure (SMILES) | IC50
CC(C)N(C[C@H]1O[C@@H](n2cnc3c(N)ncnc32)[C@H](O)[C@@H]1O)[C@H]1C[C@H](CCc2nc3cc(Cl)c(C(F)(F)F)cc3[nH]2)C1 [Compound 4, (2R,3R,4S,5R)-2-(6-amino-9H-purin-9-yl)-5-((((1s,3R)-3-(2-(5-chloro-6-(trifluoromethyl)-1H-benzo[d]imidazol-2-yl)ethyl)cyclobutyl)(isopropyl)amino)methyl)tetrahydrofuran-3,4-diol] | < 100 nM
CC(C)N(C[C@H]1O[C@@H](n2cnc3c(N)ncnc32)[C@H](O)[C@@H]1O)[C@H]1C[C@@H](CCc2nc3cc(Cl)c(C(F)(F)F)cc3[nH]2)C1 [Compound 5] | < 100 nM
CN(C[C@H]1O[C@@H](n2ccc3c(N)ncnc32)[C@H](O)[C@@H]1O)C1CC(Cc2nc3cc(C(C)(C)C)ccc3[nH]2)C1 (stereo partly drawn) [Compound 6, (2R,3R,4S,5R)-2-(4-amino-7H-pyrrolo[2,3-d]pyrimidin-7-yl)-5-(((3-((5-(tert-butyl)-1H-benzo[d]imidazol-2-yl)methyl)cyclobutyl)(methyl)amino)methyl)tetrahydrofuran-3,4-diol] | < 100 nM
CN(C[C@H]1C[C@@H](n2ccc3c(N)ncnc32)[C@H](O)[C@@H]1O)C1CC(CCc2nc3cc(C(F)(F)F)c(Cl)cc3[nH]2)C1 (stereo partly drawn) [Compound 7, (1R,2S,3R,5R)-3-(4-amino-7H-pyrrolo[2,3-d]pyrimidin-7-yl)-5-(((3-(2-(6-chloro-5-(trifluoromethyl)-1H-benzo[d]imidazol-2-yl)ethyl)cyclobutyl)(methyl)amino)methyl)cyclopentane-1,2-diol] | < 100 nM
CN(C[C@H]1O[C@@H](n2cnc3c(N)ncnc32)[C@H](O)[C@@H]1O)C1CC(NC(=O)Nc2ccc(C(C)(C)C)cc2)C1 (stereo partly drawn) [Compound 8, 1-(3-((((2R,3S,4R,5R)-5-(6-amino-9H-purin-9-yl)-3,4-dihydroxytetrahydrofuran-2-yl)methyl)(methyl)amino)cyclobutyl)-3-(4-(tert-butyl)phenyl)urea] | 10000 to 50000 nM
CN(C[C@H]1C[C@@H](n2ccc3c(N)ncnc32)[C@H](O)[C@@H]1O)[C@H]1C[C@@H](CCc2nc3cc(C(F)(F)F)c(Cl)cc3[nH]2)C1 [Compound 9, (1R,2S,3R,5R)-3-(4-amino-7H-pyrrolo[2,3-d]pyrimidin-7-yl)-5-((((1r,3S)-3-(2-(6-chloro-5-(trifluoromethyl)-1H-benzo[d]imidazol-2-yl)ethyl)cyclobutyl)(methyl)amino)methyl)cyclopentane-1,2-diol] | < 100 nM
CN(C[C@H]1C[C@@H](n2ccc3c(N)ncnc32)[C@H](O)[C@@H]1O)[C@H]1C[C@@H](CCc2nc3cc(C(F)(F)F)ccc3[nH]2)C1 [Compound 10, (1R,2S,3R,5R)-3-(4-amino-7H-pyrrolo[2,3-d]pyrimidin-7-yl)-5-((methyl((1r,3S)-3-(2-(5-(trifluoromethyl)-1H-benzo[d]imidazol-2-yl)ethyl)cyclobutyl)amino)methyl)cyclopentane-1,2-diol] | < 100 nM
CN(C[C@H]1C[C@@H](n2ccc3c(N)ncnc32)[C@H](O)[C@@H]1O)[C@H]1C[C@H](CCc2nc3cc(C(F)(F)F)ccc3[nH]2)C1 [Compound 11, (1R,2S,3R,5R)-3-(4-amino-7H-pyrrolo[2,3-d]pyrimidin-7-yl)-5-((methyl((1s,3R)-3-(2-(5-(trifluoromethyl)-1H-benzo[d]imidazol-2-yl)ethyl)cyclobutyl)amino)methyl)cyclopentane-1,2-diol] | < 100 nM
CN(C[C@H]1C[C@@H](n2ccc3c(N)ncnc32)[C@H](O)[C@@H]1O)[C@H]1C[C@H](CCc2nc3cc(C(F)(F)F)c(Cl)cc3[nH]2)C1 [Compound 12, (1R,2S,3R,5R)-3-(4-amino-7H-pyrrolo[2,3-d]pyrimidin-7-yl)-5-((((1s,3R)-3-(2-(6-chloro-5-(trifluoromethyl)-1H-benzo[d]imidazol-2-yl)ethyl)cyclobutyl)(methyl)amino)methyl)cyclopentane-1,2-diol] | < 100 nM
CN(C[C@H]1C[C@@H](n2ccc3c(N)ncnc32)[C@H](O)[C@@H]1O)C1CC(CCc2nc3cc(C(F)(F)F)ccc3[nH]2)C1 (stereo partly drawn) [Compound 13, (1R,2S,3R,5R)-3-(4-amino-7H-pyrrolo[2,3-d]pyrimidin-7-yl)-5-((methyl(3-(2-(5-(trifluoromethyl)-1H-benzo[d]imidazol-2-yl)ethyl)cyclobutyl)amino)methyl)cyclopentane-1,2-diol] | < 100 nM
CC(C)N(CC1CC(Cc2nc3cc(C(F)(F)F)ccc3[nH]2)C1)C[C@H]1C[C@@H](n2ccc3c(N)ncnc32)[C@H](O)[C@@H]1O (some centres unmarked) [Compound 15] | 1000 to 10000 nM
CN(C[C@@H]1C[C@@H](O)[C@H](n2ccc3c(N)ncnc32)C1)C1CC(CCc2nc3cc(Cl)c(C(F)(F)F)cc3[nH]2)C1 (stereo partly drawn) [Compound 17, (1R,2R,4S)-2-(4-amino-7H-pyrrolo[2,3-d]pyrimidin-7-yl)-4-(((3-(2-(5-chloro-6-(trifluoromethyl)-1H-benzo[d]imidazol-2-yl)ethyl)cyclobutyl) (methyl)amino)methyl) cyclopentanol] | 100 to 1000 nM

Further lines, results first:

IC50 | Structure (SMILES)
100 to 1000 nM | CN(CC1CC(Cc2nc3cc(C(F)(F)F)ccc3[nH]2)C1)C[C@H]1C[C@@H](n2ccc3c(N)ncnc32)[C@H](O)[C@@H]1O (stereo partly drawn) [Compound 18, (1R,2S,3R,5R)-3-{4-amino-7H-pyrrolo[2,3-d]pyrimidin-7-yl}-5-({methyl[(3-{[5-(trifluoromethyl)-1H-1,3-benzodiazol-2-yl]methyl}cyclobutyl)methyl]amino}methyl)cyclopentane-1,2-diol]
< 100 nM | CC(C)N(C[C@H]1C[C@@H](n2ccc3c(N)ncnc32)[C@H](O)[C@@H]1O)C1CC(CCc2nc3cc(C(C)(C)C)ccc3[nH]2)C1 (stereo partly drawn) [Compound 19, (1R,2S,3R,5R)-3-(4-amino-7H-pyrrolo[2,3-d]pyrimidin-7-yl)-5-(((3-(2-(5-(tert-butyl)-1H-benzo[d]imidazol-2-yl)ethyl)cyclobutyl)(isopropyl)amino)methyl)cyclopentane-1,2-diol]
< 100 nM | CC(C)N(C[C@H]1C[C@@H](n2ccc3c(N)ncnc32)[C@H](O)[C@@H]1O)C1CC(CCc2nc3cc(C(F)(F)F)c(Cl)cc3[nH]2)C1 (stereo partly drawn) [Compound 20, (1R,2S,3R,5R)-3-(4-amino-7H-pyrrolo[2,3-d]pyrimidin-7-yl)-5-(((3-(2-(6-chloro-5-(trifluoromethyl)-1H-benzo[d]imidazol-2-yl)ethyl)cyclobutyl)(isopropyl)amino)methyl)cyclopentane-1,2-diol]
1000 to 10000 nM | CC(C)N(CC1CC(Cc2nc3cc(C(F)(F)F)c(Cl)cc3[nH]2)C1)C[C@H]1C[C@@H](n2ccc3c(N)ncnc32)[C@H](O)[C@@H]1O (stereo partly drawn) [Compound 21, (1R,2S,3R,5R)-3-{4-amino-7H-pyrrolo[2,3-d]pyrimidin-7-yl}-5-({[(3-{[6-chloro-5-(trifluoromethyl)-1H-1,3-benzodiazol-2-yl]methyl}cyclobutyl)methyl](propan-2-yl)amino}methyl)cyclopentane-1,2-diol]
100 to 1000 nM | CC(C)N(CC1CC(Cc2nc3cc(C(C)(C)C)ccc3[nH]2)C1)C[C@H]1C[C@@H](n2ccc3c(N)ncnc32)[C@H](O)[C@@H]1O (stereo partly drawn) [Compound 22, (1R,2S,3R,5R)-3-{4-amino-7H-pyrrolo[2,3-d]pyrimidin-7-yl}-5-{[({3-[(5-tert-butyl-1H-1,3-benzodiazol-2-yl)methyl]cyclobutyl}methyl)(propan-2-yl)amino]methyl}cyclopentane-1,2-diol]
< 100 nM | CN(C[C@H]1C[C@@H](n2ccc3c(N)ncnc32)[C@H](O)[C@@H]1O)C1CC(CCc2nc3cc(Cl)c(Cl)cc3[nH]2)C1 (stereo partly drawn) [Compound 23, (1R,2S,3R,5R)-3-(4-amino-7H-pyrrolo[2,3-d]pyrimidin-7-yl)-5-(((3-(2-(5,6-dichloro-1H-benzo[d]imidazol-2-yl)ethyl)cyclobutyl)(methyl)amino)methyl)cyclopentane-1,2-diol]
< 100 nM | CN(C[C@H]1C[C@@H](n2ccc3c(N)ncnc32)[C@H](O)[C@@H]1O)C1CC(CCc2nc3cc(OC(F)(F)F)ccc3[nH]2)C1 (stereo partly drawn) [Compound 24, (1R,2S,3R,5R)-3-(4-amino-7H-pyrrolo[2,3-d]pyrimidin-7-yl)-5-((methyl(3-(2-(5-(trifluoromethoxy)-1H-benzo[d]imidazol-2-yl)ethyl)cyclobutyl)amino)methyl)cyclopentane-1,2-diol]
< 100 nM | CCN(C[C@H]1C[C@@H](n2ccc3c(N)ncnc32)[C@H](O)[C@@H]1O)C1CC(CCc2nc3cc(C(C)(C)C)ccc3[nH]2)C1 (stereo partly drawn) [Compound 25, (1R,2S,3R,5R)-3-(4-amino-7H-pyrrolo[2,3-d]pyrimidin-7-yl)-5-(((3-(2-(5-(tert-butyl)-1H-benzo[d]imidazol-2-yl)ethyl)cyclobutyl)(ethyl)amino)methyl)cyclopentane-1,2-diol]
< 100 nM | CN(C[C@H]1C[C@@H](n2ccc3c(N)ncnc32)[C@H](O)[C@@H]1O)C1CC(CCc2nc3cc(Br)ccc3[nH]2)C1 (stereo partly drawn) [Compound 26, (1R,2S,3R,5R)-3-(4-amino-7H-pyrrolo[2,3-d]pyrimidin-7-yl)-5-(((3-(2-(5-bromo-1H-benzo[d]imidazol-2-yl)ethyl)cyclobutyl)(methyl)amino)methyl)cyclopentane-1,2-diol]
< 100 nM | CC(C)N(C[C@H]1O[C@@H](n2cnc3c(N)ncnc32)[C@H](O)[C@@H]1O)C1CC(CCc2nc3cc(C4(C)CCC4)ccc3[nH]2)C1 (stereo partly drawn) [Compound 27, (2R,3R,4S,5R)-2-(6-amino-9H-purin-9-yl)-5-((isopropyl(3-(2-(5-(1-methylcyclobutyl)-1H-benzo[d]imidazol-2-yl)ethyl)cyclobutyl)amino)methyl)tetrahydrofuran-3,4-diol]

Same assay, conditions: read-out: DOT1L IC50

Structure (SMILES) | IC50
CC(C)N(C[C@H]1O[C@@H](n2cnc3c(N)ncnc32)[C@H](O)[C@@H]1O)[C@H]1C[C@@H](CCc2nc3cc(Cl)c(C(F)(F)F)cc3[nH]2)C1 [Compound 5] | 0.59 nM
